Measured values published in ChEMBL document CHEMBL1129169, “Preparation of N-methoxycarbonyl-N-[2-nitro-4(5)-propylthiophenyl]thiourea as prodrugs of albendazole” (1996).
Several values for one entry are separate records, joined by “and”; a condition that tells them apart may be missing. Identical values can stand only once.

How the values were obtained:
Rattus norvegicus [1] = species: Rattus norvegicus; experiment: Bioconversion to albendazole in rats at 12 hr; not detectable; type: functional, organism-based
Rattus norvegicus [2] = species: Rattus norvegicus; experiment: Bioconversion to albendazole sulfonic in rats at 6 hr; not detectable; type: functional, organism-based
Rattus norvegicus [3] = species: Rattus norvegicus; experiment: Bioconversion to albendazole in rats at 2 hr; not detectable; type: functional, organism-based
Rattus norvegicus [4] = species: Rattus norvegicus; experiment: Bioconversion to albendazole in rats at 4 hr; not detectable; type: functional, organism-based
Rattus norvegicus [5] = species: Rattus norvegicus; experiment: Bioconversion to albendazole sulfonic in rats at 4 hr; type: functional
Rattus norvegicus [6] = species: Rattus norvegicus; experiment: Bioconversion to albendazole sulfonic in rats at 12 hr; not detectable; type: functional, organism-based
Rattus norvegicus [7] = species: Rattus norvegicus; experiment: Bioconversion to albendazole sulfonic in rats at 8 hr; detectable; type: functional, organism-based
Rattus norvegicus [8] = species: Rattus norvegicus; experiment: Bioconversion to albendazole sulfonic in rats at 12 hr; type: functional
Rattus norvegicus [9] = species: Rattus norvegicus; experiment: Bioconversion to albendazole sulfonic in rats at 10 hr; not detectable; type: functional, organism-based
Rattus norvegicus [10] = species: Rattus norvegicus; experiment: Bioconversion to albendazole sulfonic in rats at 10 hr; type: functional
Rattus norvegicus [11] = species: Rattus norvegicus; experiment: Bioconversion to albendazole in rats at 8 hr; not detectable; type: functional, organism-based
Rattus norvegicus [12] = species: Rattus norvegicus; experiment: Bioconversion to albendazole sulfonic in rats at 2 hr; not detectable; type: functional, organism-based
Rattus norvegicus [13] = species: Rattus norvegicus; experiment: Bioconversion to albendazole sulfonic in rats at 4 hr; not detectable; type: functional, organism-based
Rattus norvegicus [14] = species: Rattus norvegicus; experiment: Bioconversion to albendazole sulfonic in rats at 8 hr; not detectable; type: functional, organism-based
Rattus norvegicus [15] = species: Rattus norvegicus; experiment: Bioconversion to albendazole in rats at 8 hr; type: functional
Rattus norvegicus [16] = species: Rattus norvegicus; experiment: Bioconversion to albendazole in rats at 10 hr; detectable; type: functional, organism-based
Rattus norvegicus [17] = species: Rattus norvegicus; experiment: Bioconversion to albendazole in rats at 8 hr; detectable; type: functional, organism-based
Rattus norvegicus [18] = species: Rattus norvegicus; experiment: Bioconversion to albendazole sulfonic in rats at 6 hr; type: functional
Rattus norvegicus [19] = species: Rattus norvegicus; experiment: Bioconversion to albendazole in rats at 6 hr; detectable; type: functional, organism-based
Rattus norvegicus [20] = species: Rattus norvegicus; experiment: Bioconversion to albendazole in rats at 2 hr; detectable; type: functional, organism-based
Rattus norvegicus [21] = species: Rattus norvegicus; experiment: Bioconversion to albendazole in rats at 12 hr; detectable; type: functional, organism-based
Rattus norvegicus [22] = species: Rattus norvegicus; experiment: Bioconversion to albendazole sulfonic in rats at 2 hr; type: functional
Rattus norvegicus [23] = species: Rattus norvegicus; experiment: Bioconversion to albendazole in rats at 6 hr; not detectable; type: functional, organism-based
Rattus norvegicus [24] = species: Rattus norvegicus; experiment: Bioconversion to albendazole in rats at 4 hr; detectable; type: functional, organism-based
Rattus norvegicus [25] = species: Rattus norvegicus; experiment: Bioconversion to albendazole sulfonic in rats at 8 hr; type: functional
Rattus norvegicus [26] = species: Rattus norvegicus; experiment: Bioconversion to albendazole in rats at 12 hr; type: functional
Rattus norvegicus [27] = species: Rattus norvegicus; experiment: Bioconversion to albendazole in rats at 2 hr; type: functional

Structure (SMILES) | Activity (Rattus norvegicus [2]) | Activity (Rattus norvegicus [4]) | Activity (Rattus norvegicus [5]) | Activity (Rattus norvegicus [8]) | Activity (Rattus norvegicus [9]) | Activity (Rattus norvegicus [10]) | Activity (Rattus norvegicus [14]) | Activity (Rattus norvegicus [16]) | Activity (Rattus norvegicus [17]) | Activity (Rattus norvegicus [18]) | Activity (Rattus norvegicus [19]) | Activity (Rattus norvegicus [20]) | Activity (Rattus norvegicus [21]) | Activity (Rattus norvegicus [22]) | other results
CCCSc1ccc([N+](=O)[O-])c(NC(=S)NC(=O)OC)c1 | Not detectable | Not detectable | 0.096 µg/mL | 0.1622 µg/mL | Not detectable | 0.0889 µg/mL | Not detectable | Detectable |  |  |  |  |  |  | Activity (Rattus norvegicus [1]): Not detectable; Activity (Rattus norvegicus [3]): Not detectable; Activity (Rattus norvegicus [6]): Not detectable; Activity (Rattus norvegicus [7]): Detectable; Activity (Rattus norvegicus [11]): Not detectable; Activity (Rattus norvegicus [12]): Not detectable; Activity (Rattus norvegicus [13]): Not detectable; Activity (Rattus norvegicus [15]): 0.0792 µg/mL
CCCSc1ccc(NC(=S)NC(=O)OC)c([N+](=O)[O-])c1 | Not detectable | Not detectable | 0.0927 µg/mL and 0.0958 µg/mL | 0.2704 µg/mL | Not detectable |  | Not detectable | Detectable | Detectable | 0.1633 µg/mL | Detectable | Detectable | Detectable | 0.1802 µg/mL and 0.1088 µg/mL | Activity (Rattus norvegicus [23]): Not detectable
CCCSc1ccc2[nH]c(NC(=O)OC)nc2c1 [ALBENDAZOLE] |  |  | 0.3084 µg/mL and 0.1935 µg/mL |  |  | 0.2696 µg/mL and 0.1297 µg/mL |  | Detectable | Detectable | 0.2875 µg/mL and 0.4081 µg/mL | Detectable | Detectable | Detectable | 0.593 µg/mL and 0.245 µg/mL | Activity (Rattus norvegicus [24]): Detectable; Activity (Rattus norvegicus [25]): 0.28 µg/mL and 0.1113 µg/mL; Activity (Rattus norvegicus [26]): 0.098 µg/mL; Activity (Rattus norvegicus [27]): 0.055 µg/mL
